Measured values: patent US10259808B2 (Genentech, Inc., priority 2015, dated 2019)

These compounds were tested against T1, RORc ligand binding domain (Homo sapiens, UniProt P51449) (assay: In vitro RORc ligand binding assay (25-[3H]hydroxycholesterol displacement)). Conditions: not given.
T1 sequence (P51449 269-508 limits assumed): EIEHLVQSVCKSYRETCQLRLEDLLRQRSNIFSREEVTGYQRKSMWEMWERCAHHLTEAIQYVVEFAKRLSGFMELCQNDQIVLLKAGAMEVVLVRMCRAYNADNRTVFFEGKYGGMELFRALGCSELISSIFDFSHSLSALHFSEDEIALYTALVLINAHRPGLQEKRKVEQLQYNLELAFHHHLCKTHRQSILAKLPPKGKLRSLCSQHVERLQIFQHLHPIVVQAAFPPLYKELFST

Row | IC50 [nM] | Compound
1 | 17.6 | C[C@H]1CC[C@H](c2ccccc2)S(=O)(=O)N1Cc1cc(F)c([C@]2(c3nn(C)c(=O)o3)C[C@@H](O)C2)cc1F [Example 146, cis 5-[1-[2,5-difluoro-4-[[(3S,6R)-3-methyl-1,1-dioxo-6-phenyl-thiazinan-2-yl]methyl]phenyl]-3-hydroxy-cyclobutyl]-3-methyl-1,3,4-oxadiazol-2-one]
2 | 4.6 | C[C@H]1CC[C@H](c2ccccc2)S(=O)(=O)N1Cc1cc(F)c([C@]2(c3nn(C)c(=O)o3)C[C@H](O)C2)cc1F [Example 147, trans 5-[1-[2,5-difluoro-4-[[(3S,6R)-3-methyl-1,1-dioxo-6-phenyl-thiazinan-2-yl]methyl]phenyl]-3-hydroxy-cyclobutyl]-3-methyl-1,3,4-oxadiazol-2-one]
3 | 5.3 | C[C@H]1CC[C@H](c2ccccc2)S(=O)(=O)N1Cc1cc(F)c([C@]2(c3n[nH]c(=O)o3)C[C@@](O)(C(F)(F)F)C2)cc1F [Example 149, trans 5-[1-[2,5-difluoro-4-[[(3S,6R)-3-methyl-1,1-dioxo-6-phenyl-thiazinan-2-yl]methyl]phenyl]-3-hydroxy-3-(trifluoromethyl)cyclobutyl]-3H-1,3,4-oxadiazol-2-one]
4 | 39 | C[C@H]1CC[C@H](c2ccccc2)S(=O)(=O)N1Cc1cc(F)c([C@]2(c3n[nH]c(=O)o3)C[C@@H]2CO)cc1F [Example 150, 5-[(1S,2S)-1-[2,5-difluoro-4-[[(3S,6R)-3-mcthyl-1,1-dioxo-6-phenyl-thiazinan-2-yl]methyl]phenyl]-2-(hydroxymethyl)cyclopropyl]-3H-1,3,4-oxadiazol-2-one]
5 | 6.9 | C[C@H]1CC[C@H](c2ccccc2)S(=O)(=O)N1Cc1cc(F)c([C@]2(c3nn(C)c(=O)o3)C[C@](C)(O)C2)cc1F [Example 151, trans 5-[1-[2,5-difluoro-4-[[(3S,6R)-3-methyl-1,1-dioxo-6-phenyl-thiazinan-2-yl]methyl]phenyl]-3-hydroxy-3-methyl-cyclobutyl]-3-methyl-1,3,4-oxadiazol-2-one]
6 | 7.1 | C[C@H]1CC[C@H](c2ccccc2)S(=O)(=O)N1Cc1cc(F)c([C@]2(c3n[nH]c(=O)o3)C[C@@H](CC#N)C2)cc1F [Example 152, cis 2-[3-[2,5-difluoro-4-[[(3S,6R)-3-methyl-1,1-dioxo-6-phenyl-thiazinan-2-yl]methyl]phenyl]-3-(2-oxo-3H-1,3,4-oxadiazol-5-yl)cyclobutyl]acetonitrile]
7 | 8.7 | C[C@H]1CC[C@H](c2ccccc2)S(=O)(=O)N1Cc1cc(F)c([C@]2(c3n[nH]c(=O)o3)C[C@H](CC#N)C2)cc1F [Example 153, trans 2-[3-[2,5-difluoro-4-[[(3S,6R)-3-methyl-1,1-dioxo-6-phenyl-thiazinan-2-yl]methyl]phenyl]-3-(2-oxo-3H-1,3,4-oxadiazol-5-yl)cyclobutyl]acetonitrile]
8 | 6.2 | CO[C@H]1C[C@@](c2n[nH]c(=O)o2)(c2cc(F)c(CN3[C@@H](C)CC[C@H](c4ccccc4)S3(=O)=O)cc2F)C1 [Example 154, trans 5-[1-[2,5-difluoro-4-[[(3S,6R)-3-methyl-1,1-dioxo-6-phenyl-thiazinan-2-yl]methyl]phenyl]-3-methoxy-cyclobutyl]-3H-1,3,4-oxadiazol-2-one]
9 | 11.3 | CO[C@H]1C[C@](c2n[nH]c(=O)o2)(c2cc(F)c(CN3[C@@H](C)CC[C@H](c4ccccc4)S3(=O)=O)cc2F)C1 [Example 155, cis 5-[1-[2,5-difluoro-4-[[(3S,6R)-3-methyl-1,1-dioxo-6-phenyl-thiazinan-2-yl]methyl]phenyl]-3-methoxy-cyclobutyl]-3H-1,3,4-oxadiazol-2-one]
10 | 4 | CO[C@]1(C)C[C@](c2n[nH]c(=O)o2)(c2cc(F)c(CN3[C@@H](C)CC[C@H](c4ccccc4)S3(=O)=O)cc2F)C1 [Example 156, trans 5-[1-[2,5-difluoro-4-[[(3S,6R)-3-methyl-1,1-dioxo-6-phenyl-thiazinan-2-yl]methyl]phenyl]-3-methoxy-3-methyl-cyclobutyl]-3H-1,3,4-oxadiazol-2-one]
11 | 7.4 | CO[C@]1(C)C[C@@](c2n[nH]c(=O)o2)(c2cc(F)c(CN3[C@@H](C)CC[C@H](c4ccccc4)S3(=O)=O)cc2F)C1 [Example 157, cis 5-[1-[2,5-difluoro-4-[[(3S,6R)-3-methyl-1,1-dioxo-6-phenyl-thiazinan-2-yl]methyl]phenyl]-3-methoxy-3-methyl-cyclobutyl]-3H-1,3,4-oxadiazol-2-one]
12 | 3.2 | C[C@H]1CC[C@H](c2ccccc2)S(=O)(=O)N1Cc1cc(F)c([C@]2(c3c[nH]c(=O)o3)C[C@](C)(O)C2)cc1F [Example 158, 5-[1-[2,5-difluoro-4-[[(3S,6R)-3-methyl-1,1-dioxo-6-phenyl-thiazinan-2-yl]methyl]phenyl]-3-hydroxy-3-methyl-cyclobutyl]-3H-oxazol-2-one]
13 | 2.8 | C[C@H]1CC[C@H](c2ccccc2)S(=O)(=O)N1Cc1cc(F)c([C@]2(c3cn(C)c(=O)o3)C[C@](C)(O)C2)cc1F [Example 159, 5-[1-[2,5-difluoro-4-[[(3S,6R)-3-methyl-1,1-dioxo-6-phenyl-thiazinan-2-yl]methyl]phenyl]-3-hydroxy-3-methyl-cyclobutyl]-3-methyl-oxazol-2-one]
14 | 13.6 | Cc1[nH]c(=O)oc1[C@]1(c2cc(F)c(CN3[C@@H](C)CC[C@H](c4ccccc4)S3(=O)=O)cc2F)C[C@@](C)(O)C1 [Example 160, 5-[1-[2,5-difluoro-4-[[(3S,6R)-3-methyl-1,1-dioxo-6-phenyl-thiazinan-2-yl]methyl]phenyl]-3-hydroxy-3-methyl-cyclobutyl]-4-methyl-3H-oxazol-2-one]
15 | 5.2 | C[C@H]1CC[C@H](c2ccccc2)S(=O)(=O)N1Cc1cc(F)c([C@]2(c3cc(=O)n(C)o3)C[C@](C)(O)C2)cc1F [Example 161, 5-[1-[2,5-difluoro-4-[[(3S,6R)-3-methyl-1,1-dioxo-6-phenyl-thiazinan-2-yl]methyl]phenyl]-3-hydroxy-3-methyl-cyclobutyl]-2-methyl-isoxazol-3-one]
16 | 3.6 | COc1cc([C@]2(c3cc(F)c(CN4[C@@H](C)CC[C@H](c5ccccc5)S4(=O)=O)cc3F)C[C@@](C)(O)C2)on1 [Example 162, 3-[2,5-difluoro-4-[[(3S,6R)-3-methyl-1,1-dioxo-6-phenyl-thiazinan-2-yl]methyl]phenyl]-3-(3-methoxyisoxazol-5-yl)-1-methyl-cyclobutanol]
17 | 6.1 | C=C[C@]1(O)C[C@@](c2c[nH]c(=O)o2)(c2cc(F)c(CN3[C@@H](C)CC[C@H](c4ccccc4)S3(=O)=O)cc2F)C1 [Example 164, 5-[1-[2,5-difluoro-4-[[(3S,6R)-3-methyl-1,1-dioxo-6-phenyl-thiazinan-2-yl]methyl]phenyl]-3-hydroxy-3-vinyl-cyclobutyl]-3H-oxazol-2-one]
18 | 6.7 | C[C@H]1CC[C@H](c2ccccc2)S(=O)(=O)N1Cc1cc(F)c([C@]2(c3c[nH]c(=O)o3)C[C@@](O)(C3CC3)C2)cc1F [Example 165, 5-[3-cyclopropyl-1-[2,5-difluoro-4-[[(3S,6R)-3-methyl-1,1-dioxo-6-phenyl-thiazinan-2-yl]methyl]phenyl]-3-hydroxy-cyclobutyl]-3H-oxazol-2-one]
19 | 47.4 | C[C@H]1CC[C@H](c2ccccc2)S(=O)(=O)N1Cc1cc(F)c(C2(C(=O)NCC3COC3)CCOCC2)cc1F [Example 346, 4-[2,5-difluoro-4-[[(3S,6R)-3-methyl-1,1-dioxo-6-phenyl-thiazinan-2-yl]methyl]phenyl]-N-(oxetan-3-ylmethyl)tetrahydropyran-4-carboxamide]

Same assay, conditions: IC50 values for RORc

Row | Compound | IC50 [nM]
20 | cis 5-[1-[2,5-difluoro-4-[[(3S,6R)-3- methyl-1,1-dioxo-6-phenyl-thiazinan-2- yl]methyl]phenyl]-3-hydroxy-3- (trifluoromethyl)cyclobutyl]-3H-1,3,4- oxadiazol-2-one [Example 148] | 11
